Results reported in PubChem BioAssay AID256 (DTP/NCI, 2004).
Several values for one entry are separate records, joined by “and”; a condition that tells them apart may be missing. Identical values can stand only once. Toxic doses and inconclusive results are not listed. How the source made its calls: active means survival T/C of 150% or more; inactive means T/C below 125% in these data.

System: CD2F1 mice, L1210 leukemia ip, survival T/C
Experiment: NCI In Vivo Anticancer Drug Screen. Data for tumor model L1210 Leukemia (intraperitoneal) in CD2F1 (CDF1) mice
Conditions: higher = longer survival
How it was run: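 Mice carrying a transplanted tumor received test compound or vehicle alone. The value is the measurement in the treated group divided by that in the vehicle-treated control group.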

[1] = endpoint: mean survival time, dose: 100.0 mg/kg/injection, schedule: Q01DX009 (ip), vehicle: saline with Tween-80
[2] = endpoint: mean survival time, dose: 100.0 mg/kg/injection, schedule: Q04DX003 (ip), vehicle: saline with Tween-80
[3] = endpoint: mean survival time, dose: 200.0 mg/kg/injection, schedule: Q01DX009 (ip), vehicle: saline with Tween-80
[4] = endpoint: mean survival time, dose: 200.0 mg/kg/injection, schedule: Q04DX003 (ip), vehicle: saline with Tween-80
[5] = endpoint: mean survival time, dose: 400.0 mg/kg/injection, schedule: Q01DX009 (ip), vehicle: saline with Tween-80
[6] = endpoint: mean survival time, dose: 400.0 mg/kg/injection, schedule: Q04DX003 (ip), vehicle: saline with Tween-80
[7] = endpoint: mean survival time, dose: 200.0 mg/kg/injection, schedule: Q04DX003 (ip), vehicle: saline
[8] = endpoint: mean survival time, dose: 50.0 mg/kg/injection, schedule: Q01DX009 (ip), vehicle: saline with Tween-80
[9] = endpoint: mean survival time, dose: 25.0 mg/kg/injection, schedule: Q04DX003 (ip), vehicle: saline
[10] = endpoint: mean survival time, dose: 50.0 mg/kg/injection, schedule: Q04DX003 (ip), vehicle: saline
[11] = endpoint: mean survival time, dose: 25.0 mg/kg/injection, schedule: Q04DX002 (ip), vehicle: saline with Tween-80
[12] = endpoint: mean survival time, dose: 50.0 mg/kg/injection, schedule: Q04DX002 (ip), vehicle: saline with Tween-80
[13] = endpoint: mean survival time, dose: 100.0 mg/kg/injection, schedule: Q04DX002 (ip), vehicle: saline with Tween-80
[14] = endpoint: mean survival time, dose: 200.0 mg/kg/injection, schedule: Q04DX002 (ip), vehicle: saline with Tween-80
[15] = endpoint: mean survival time, dose: 50.0 mg/kg/injection, schedule: Q01DX009 (ip), vehicle: saline

Measured: T/C

CNCC(=O)NCCCCCCCCCCNC(=O)CNC
inactive: endpoint: mean survival time, dose: 12.5 mg/kg/injection, schedule: Q01DX010 (ip), vehicle: saline 100 % of control | endpoint: mean survival time, dose: 25.0 mg/kg/injection, schedule: Q01DX010 (ip), vehicle: saline 101 % of control | endpoint: mean survival time, dose: 50.0 mg/kg/injection, schedule: Q01DX010 (ip), vehicle: saline 97 % of control | endpoint: mean survival time, dose: 100.0 mg/kg/injection, schedule: Q01DX010 (ip), vehicle: saline 95 % of control

S=C1NCCO1
inactive: [1] 100 % of control and 95 % of control | [2] 95 % of control | [3] 91 % of control and 97 % of control | [4] 93 % of control | [5] 112 % of control | [6] 104 % of control

CC(Br)C(Br)CO (stereo not given)
inactive: endpoint: mean survival time, dose: 100.0 mg/kg/injection, schedule: Q04DX003 (ip), vehicle: saline 104 % of control | [7] 96 % of control | endpoint: mean survival time, dose: 400.0 mg/kg/injection, schedule: Q04DX003 (ip), vehicle: saline 106 % of control

COc1cc(OC)c(NC(=O)Nc2ccc(Cl)c(C(F)(F)F)c2)cc1Cl
inactive: [8] 93 % of control | [1] 93 % of control | [3] 93 % of control

OC(COc1ccccc1Cl)COc1ccccc1Cl
inactive: endpoint: mean survival time, dose: 100.0 mg/kg/injection, schedule: Q04DX003 (ip), vehicle: saline + alcohol 101 % of control | endpoint: mean survival time, dose: 200.0 mg/kg/injection, schedule: Q04DX003 (ip), vehicle: saline + alcohol 95 % of control | endpoint: mean survival time, dose: 400.0 mg/kg/injection, schedule: Q04DX003 (ip), vehicle: saline + alcohol 95 % of control

N#Cc1cn(C2OC(CO)C(O)C2O)n2ccnc12 (stereo not given)
inactive: endpoint: median survival time, dose: 12.5 mg/kg/injection, schedule: Q01DX005 (ip), vehicle: water 118 % of control | endpoint: median survival time, dose: 25.0 mg/kg/injection, schedule: Q01DX005 (ip), vehicle: water 102 % of control | endpoint: median survival time, dose: 50.0 mg/kg/injection, schedule: Q01DX005 (ip), vehicle: water 116 % of control | endpoint: median survival time, dose: 100.0 mg/kg/injection, schedule: Q01DX005 (ip), vehicle: water 109 % of control | endpoint: median survival time, dose: 200.0 mg/kg/injection, schedule: Q01DX005 (ip), vehicle: water 115 % of control

C=C(Br)CN=C=S
inactive: endpoint: mean survival time, dose: 12.5 mg/kg/injection, schedule: Q04DX003 (ip), vehicle: saline 94 % of control | [9] 94 % of control | [10] 88 % of control

Cc1cccc(C)c1NC1=CC(=O)C(=O)c2ccccc21
inactive: endpoint: mean survival time, dose: 75.0 mg/kg/injection, schedule: Q01DX001 (ip), vehicle: saline 95 % of control | endpoint: mean survival time, dose: 150.0 mg/kg/injection, schedule: Q01DX001 (ip), vehicle: saline 89 % of control | endpoint: mean survival time, dose: 300.0 mg/kg/injection, schedule: Q01DX001 (ip), vehicle: saline 97 % of control

COc1ccc(NC(=O)Nc2ccc([N+](=O)[O-])cc2OC)c(Cl)c1
inactive: [11] 88 % of control and 101 % of control | [12] 95 % of control and 103 % of control | endpoint: mean survival time, dose: 100.0 mg/kg/injection, schedule: Q01DX001 (ip), vehicle: saline with Tween-80 94 % of control | [1] 88 % of control and 95 % of control | [13] 95 % of control | [2] 97 % of control | endpoint: mean survival time, dose: 200.0 mg/kg/injection, schedule: Q01DX001 (ip), vehicle: saline with Tween-80 101 % of control | [3] 88 % of control and 97 % of control | [14] 93 % of control | [4] 95 % of control | endpoint: mean survival time, dose: 400.0 mg/kg/injection, schedule: Q01DX001 (ip), vehicle: saline with Tween-80 86 % of control and 91 % of control | [5] 90 % of control and 100 % of control | endpoint: mean survival time, dose: 400.0 mg/kg/injection, schedule: Q04DX002 (ip), vehicle: saline with Tween-80 98 % of control | [6] 101 % of control

CC[N+](C)(CC)CCCOC(=O)c1ccccc1Oc1ccc(C)cc1
inactive: [15] 102 % of control

C=C(CCCCCCCCCCCCCCCC)C(=O)O
inactive: [11] 90 % of control | [12] 87 % of control | [13] 94 % of control

CCCCCCCCCCCCCCCCOc1ccccc1/C=N/O
inactive: endpoint: mean survival time, dose: 100.0 mg/kg/injection, schedule: Q01DX009 (ip), vehicle: Klucel (hydroxypropylcellulose) (HPC) 87 % of control | endpoint: mean survival time, dose: 200.0 mg/kg/injection, schedule: Q01DX009 (ip), vehicle: Klucel (hydroxypropylcellulose) (HPC) 89 % of control

Nc1nc(N)c2nc(CNc3ccc(C(=O)NC(CCC(=O)O)C(=O)O)cc3)ccc2n1 (stereo not given)
inactive: endpoint: mean survival time, dose: 15.63 micrograms/kg/injection, schedule: Q01DX005 (ip), vehicle: sodium bicarbonate 118 % of control | endpoint: mean survival time, dose: 31.25 micrograms/kg/injection, schedule: Q01DX005 (ip), vehicle: sodium bicarbonate 118 % of control | endpoint: mean survival time, dose: 62.5 micrograms/kg/injection, schedule: Q01DX005 (ip), vehicle: sodium bicarbonate 120 % of control and 110 % of control | endpoint: mean survival time, dose: 125.0 micrograms/kg/injection, schedule: Q01DX005 (ip), vehicle: sodium bicarbonate 113 % of control

O=C1CC(=O)NC(=O)C1
inactive: endpoint: mean survival time, dose: 12.5 mg/kg/injection, schedule: Q01DX009 (ip), vehicle: water 95 % of control | endpoint: mean survival time, dose: 25.0 mg/kg/injection, schedule: Q01DX009 (ip), vehicle: water 92 % of control | endpoint: mean survival time, dose: 50.0 mg/kg/injection, schedule: Q01DX009 (ip), vehicle: water 94 % of control | endpoint: mean survival time, dose: 100.0 mg/kg/injection, schedule: Q01DX009 (ip), vehicle: water 92 % of control | endpoint: mean survival time, dose: 200.0 mg/kg/injection, schedule: Q01DX009 (ip), vehicle: water 94 % of control

CCCCCCC(O)C[N+](=O)[O-] (stereo not given)
inactive: [8] 96 % of control | [3] 100 % of control

Clc1nc[nH]c1Cl
inactive: endpoint: mean survival time, dose: 25.0 mg/kg/injection, schedule: Q01DX009 (ip), vehicle: saline with Tween-80 97 % of control | [8] 95 % of control | [1] 97 % of control | [2] 95 % of control

OCCN1CCN(CCCN2c3ccccc3Sc3ccc(Cl)cc32)CC1
inactive: endpoint: mean survival time, dose: 6.25 mg/kg/injection, schedule: Q01DX009 (ip), vehicle: Klucel (hydroxypropylcellulose) (HPC) 93 % of control | endpoint: mean survival time, dose: 6.25 mg/kg/injection, schedule: Q04DX002 (ip), vehicle: Klucel (hydroxypropylcellulose) (HPC) 96 % of control | endpoint: mean survival time, dose: 12.5 mg/kg/injection, schedule: Q01DX009 (ip), vehicle: Klucel (hydroxypropylcellulose) (HPC) 96 % of control | endpoint: mean survival time, dose: 12.5 mg/kg/injection, schedule: Q04DX002 (ip), vehicle: Klucel (hydroxypropylcellulose) (HPC) 91 % of control | endpoint: mean survival time, dose: 25.0 mg/kg/injection, schedule: Q01DX009 (ip), vehicle: Klucel (hydroxypropylcellulose) (HPC) 116 % of control | [9] 108 % of control and 110 % of control | endpoint: mean survival time, dose: 25.0 mg/kg/injection, schedule: Q04DX009 (ip), vehicle: Klucel (hydroxypropylcellulose) (HPC) 113 % of control | [10] 110 % of control | [7] 116 % of control

O=c1[nH]c(=O)c2nc(-c3cccnc3)cnc2[nH]1
inactive: endpoint: mean survival time, dose: 12.5 mg/kg/injection, schedule: Q01DX009 (ip), vehicle: saline 98 % of control and 103 % of control | endpoint: mean survival time, dose: 25.0 mg/kg/injection, schedule: Q01DX009 (ip), vehicle: saline 101 % of control and 102 % of control | [15] 93 % of control and 104 % of control | endpoint: mean survival time, dose: 100.0 mg/kg/injection, schedule: Q01DX009 (ip), vehicle: saline 98 % of control and 110 % of control | endpoint: mean survival time, dose: 200.0 mg/kg/injection, schedule: Q01DX009 (ip), vehicle: saline 101 % of control and 110 % of control | endpoint: mean survival time, dose: 400.0 mg/kg/injection, schedule: Q01DX009 (ip), vehicle: saline 114 % of control and 102 % of control

COC(=O)c1csc(C2OC(CO)C(O)C2O)n1 (stereo not given)
inactive: endpoint: mean survival time, dose: 25.0 mg/kg/injection, schedule: Q01DX005 (ip), vehicle: water 107 % of control | endpoint: mean survival time, dose: 50.0 mg/kg/injection, schedule: Q01DX005 (ip), vehicle: water 103 % of control | endpoint: mean survival time, dose: 100.0 mg/kg/injection, schedule: Q01DX005 (ip), vehicle: water 101 % of control | endpoint: mean survival time, dose: 200.0 mg/kg/injection, schedule: Q01DX005 (ip), vehicle: water 101 % of control | endpoint: mean survival time, dose: 400.0 mg/kg/injection, schedule: Q01DX005 (ip), vehicle: water 102 % of control

CO[C@@]12[C@@H]3N[C@@H]3CN1C1=C(C(=O)C(Nc3nc(C)cs3)=C(C)C1=O)[C@@H]2COC(N)=O
inactive: endpoint: mean survival time, dose: 1.5 mg/kg/injection, schedule: Q01DX001 (ip), vehicle: water 116 % of control and 112 % of control | endpoint: mean survival time, dose: 3.0 mg/kg/injection, schedule: Q01DX001 (ip), vehicle: water 115 % of control | endpoint: mean survival time, dose: 6.0 mg/kg/injection, schedule: Q01DX001 (ip), vehicle: water 121 % of control

CC(C)OC(=O)C(NC=O)C(C)(C)S (stereo not given)
inactive: [1] 100 % of control | [3] 96 % of control | [5] 95 % of control

COc1ccc(CCl)cc1CCl
inactive: [2] 102 % of control | [4] 91 % of control

Cc1ccc(NCC(O)C(O)C(O)CO)cc1C (stereo not given)
inactive: [13] 106 % of control | [14] 103 % of control
